{
  "source": "patent US8796203B2",
  "about": "“Use of tight junction antagonists to treat inflammatory bowel disease” (Alba Therapeutics Corporation, priority 2006, dated 2014)",
  "format_in_all_cases": "in vivo",
  "key": {"129/Svev/IL-10KO mouse": {"system": "129/Svev/IL-10KO mouse", "experiment": "Small intestinal permeability by lactulose mannitol test in IL-10 KO mouse", "conditions": "high dose AT-1001 (1 mg/ml in drinking water, ad libidum), FIGS. 1-4", "procedure": "(§1) The purpose of this study is to determine the ability of AT-1001, administered daily in drinking water to alter intestinal permeability (measured by absorption/excretion of lactulose and mannitol) and to inhibit the development of colitis in the 129/Svev/IL-10KO mouse.\nAT-1001 neat chemical will be administered ad libidum every day starting at day 1 to Group 3 at 0.1 mg/ml and Group 4 at 1 mg/ml in sterile water via the drinking water supply. Dosing of AT-1001 will be continued when the animals are in the metabolic cages for 22 hours. Probiotic conditioned medium will be given every morning to Group 2. The solution is prepared by dissolving 0.01 g in 10 ml of MRS medium and incubating it at 37° C. for 24 h. After incubation, the tube will be centrifuged 10 minutes at 10,000 rpm. The supernatant will be filtered through a 0.22 micron filter and diluted 1:10 with MRS medium. Animals will receive 30 μl of this dilution every morning. The conditioned media must be prepared fresh every morning.\nEach week, food and water will be removed 4 hours prior to gavage. […]\nDuring each intestinal permeability trial, all subjects will be gavaged with suc/lac/man/sucralose solution and placed in metabolic cages immediately after to enable urine collection. […] All sugars will be quantified by ion exchange HPLC. […]"}, "[1]": {"system": "129/Svev/IL-10KO mouse colon", "experiment": "Colonic permeability and electrical resistance, Ussing chamber measurements, IL-10 KO mouse", "conditions": "at 8 weeks of age, AT-1001 in drinking water, versus untreated animals", "procedure": "as §1\n(§2) FIG. 5-10 show the results of analysis of disease in the colon. Disease in the colon was evaluated at both 8 and 17 week time points. The former with Ussing chamber measurements and the latter with histology, mucosal cytokine secretion, MPO and sucralose permeability."}, "[2]": {"system": "129/Svev/IL-10KO mouse colon", "experiment": "Colonic inflammation (histology, mucosal cytokine secretion, MPO) in IL-10 KO mouse", "conditions": "at 17 weeks; AT-1001 in drinking water", "description": "as §1\nImmediately upon expiration, stomachs, small intestines, and colons will be collected and weighed. Each tissue will be scored for macroscopic lesions to assess intestinal damage by the Study Pathologist. ELISAs will be performed on each tissue to measure the levels of MPO, IL-8, TNFα, and IFNγ. A section of the tissues will be fixed in formalin for HE histology. The day after the final intestinal permeability measures on day 77, all surviving animals will be euthanized and intestinal tissues collected and processed.\nas §2"}},
  "data": [
    {"substance": "AT-1001", "values": [
      {"measurement": "increase in small intestinal permeability associated with development of disease", "setting": "129/Svev/IL-10KO mouse", "value": "abrogated"},
      {"measurement": "colonic electrical resistance", "setting": "[1]", "value": "prevented the reduction in electrical resistance"},
      {"measurement": "colonic permeability to mannitol", "setting": "[1]", "value": "reduced colonic permeability to mannitol"},
      {"measurement": "tissue markers of colonic inflammation (neutrophil infiltration/MPO, TNF and IFN secretion over 24 hours)", "setting": "[2]", "value": "reduced all tissue markers of colonic inflammation that were measured"}
    ]}
  ]
}
